SMILES strings stand for the structures.

For one assay, the system named is U937 cells. Description: Cellular assay in U937 cells: activity of RIPK1 inhibitors on TNFα/zVAD.fmk-induced cell death (necroptosis), CellTiter 96 AQueous (MTS) readout. Particulars: Homo sapiens, U-937. It counts as cell-based. In short, it runs like this:
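Necroptosis was measured by viable-cell MTS reduction (4 h, absorbance 490 nm) after overnight (18–24 h) 37° C culture. Cell suspensions of U937 cells carried TNFα (100 ng/ml) plus zVAD.fmk (50 μM) before compound was added. A 10-point curve (10 μM–0.26 nM or 1 μM–0.07 nM) was run in duplicate, normalised to the control lacking TNFα/zVAD.fmk.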

Assay [1] concerns the target T1, hRIPK1 (aa 1-375) fusion protein (Homo sapiens, UniProt Q13546).
T1 construct: hRIPK1 (aa 1-375) fusion protein
T1 sequence (Q13546 1-375): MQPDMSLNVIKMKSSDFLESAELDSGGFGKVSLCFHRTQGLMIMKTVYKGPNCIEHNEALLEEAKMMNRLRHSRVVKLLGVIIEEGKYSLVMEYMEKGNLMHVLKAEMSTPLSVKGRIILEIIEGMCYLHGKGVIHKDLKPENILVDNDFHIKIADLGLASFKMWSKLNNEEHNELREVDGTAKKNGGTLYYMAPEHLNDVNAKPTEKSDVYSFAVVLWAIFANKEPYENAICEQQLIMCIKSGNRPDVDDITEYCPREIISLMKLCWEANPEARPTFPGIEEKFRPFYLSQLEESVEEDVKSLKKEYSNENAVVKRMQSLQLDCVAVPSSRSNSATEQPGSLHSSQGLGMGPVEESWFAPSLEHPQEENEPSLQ
The assay is described as follows: ADP-Glo kinase assay: catalytic activity of RIPK1 (autophosphorylation, conversion of ATP to ADP). It counts as biochemical. In short, it runs like this:
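hRIPK1 (aa 1-375) fusion protein (3.6 μg/ml final) was preincubated 30 min at rt with compound (33300-1.69 nM, 1% DMSO), then 50 μM ATP was added for 240 min at rt. ADP from autophosphorylation was measured by ADP-Glo luminescence and curves fitted by nonlinear regression.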
Background: In ADP-Glo the light output rises with the ADP produced.

The term IC50 denotes the midpoint of a concentration-inhibition curve. High values mean a need for much substance, low ones inhibition by little substance. `Cc1nn(C[C@H]2CC[C@H](C(=O)N3OCC[C@H]3c3cc(F)cc(F)c3)CC2)c2cc(F)c(C#N)cc12` [compound 68, trans-1-((4-((S)-3-(3,5-difluorophenyl)isoxazolidine-2-carbonyl)cyclohexyl)methyl)-6-fluoro-3-methyl-1H-indazole-5-carbonitrile]: the IC50 in the assay on U937 cells was determined as 2 nM; in assay [1] it was 25 nM.
On to `Cc1nc2c(C)cc(C[C@H]3CC[C@H](C(=O)N4OCC[C@H]4c4cncc(F)c4)CC3)cn2n1` [compound 331, trans-[4-[(2,8-dimethyl-[1,2,4]triazolo[1,5-a]pyridin-6-yl)methyl]cyclohexyl]-[(3S)-3-(5-fluoropyridin-3-yl)-1,2-oxazolidin-2-yl]methanone], for which the results for the concentration for half-maximal inhibition (IC50) (in the assay on U937 cells; in assay [1]) were 20 nM and 15 nM, respectively.
For `Cc1cn2cc(C[C@H]3CC[C@H](C(=O)N4OCC[C@H]4c4cnccn4)CC3)ccc2n1` [compound 226, trans-[4-[(2-methylimidazo[1,2-a]pyridin-6-yl)methyl]cyclohexyl]-[(3S)-3-pyrazin-2-ylisoxazolidin-2-yl]methanone] the same measures were 40 nM and 44 nM.
On the same counts, the results for `Cc1ccc([C@@H]2CCON2C(=O)[C@H]2CC[C@H](Cc3ccc(C)c(C(N)=O)c3)CC2)cc1` [compound 131, trans-2-methyl-5-[[4-[(3S)-3-(p-tolyl)isoxazolidine-2-carbonyl]cyclohexyl]methyl]benzamide] are 5 nM and 15 nM.
`O=C([C@H]1CC[C@H](Cc2ccc(C3(O)COC3)cc2)CC1)N1OCC[C@H]1c1ccc(F)cc1` [compound 170, trans-[(3S)-3-(4-fluorophenyl)isoxazolidin-2-yl]-[4-[[4-(3-hydroxyoxetan-3-yl)phenyl]methyl]cyclohexyl]methanone]: the values for the IC50 (with U937 cells; in assay [1]) were 15 nM and 21 nM, respectively.
Consider `Cc1ncc([C@@H]2CCON2C(=O)[C@H]2CC[C@H](Cc3cc(F)c4ncnn4c3)CC2)cc1F` [compound 392, trans-[(3S)-3-(5-fluoro-6-methylpyridin-3-yl)-1,2-oxazolidin-2-yl]-[4-[(8-fluoro-[1,2,4]triazolo[1,5-a]pyridin-6-yl)methyl]cyclohexyl]methanone], for which the figures for the half-inhibitory concentration (IC50) (in the assay with U937 cells; in assay [1]) were 18 nM and 32 nM, respectively.
For `N#Cc1cc(F)cc([C@@H]2CCON2C(=O)[C@H]2CC[C@H](Cc3ccc(C4(O)COC4)cc3)CC2)c1` [compound 169, trans-3-fluoro-5-[(3S)-2-[4-[[4-(3-hydroxyoxetan-3-yl)phenyl]methyl]cyclohexanecarbonyl]isoxazolidin-3-yl]benzonitrile] the same measures were 44 nM and 19 nM.
For `Cc1ccc([C@@H]2CCON2C(=O)[C@H]2CC[C@H](Cc3cc(C)ncc3C)CC2)cn1` [compound 354, trans-[4-(2,5-Dimethyl-pyridin-4-ylmethyl)-cyclohexyl]-[(S)-3-(6-methyl-pyridin-3-yl)-isoxazolidin-2-yl]-methanone] the same measures were 27 nM and 33 nM.
Consider `N#Cc1cc(F)cc([C@@H]2CCON2C(=O)[C@H]2CC[C@H](Cn3ccc4ncc(F)cc43)CC2)c1` [compound 93, trans-3-fluoro-5-((S)-2-(4-((6-fluoro-1H-pyrrolo[3,2-b]pyridin-1-yl)methyl)cyclohexane-1-carbonyl)isoxazolidin-3-yl)benzonitrile], for which the IC50 with U937 cells turned out to be 2 nM; in assay [1] it was 20 nM.
Take `NC(=O)c1ccc2c(cnn2C[C@H]2CC[C@H](C(=O)N3OCC[C@H]3c3cc(F)cc(F)c3)CC2)c1` [compound 73, trans-1-((4-((S)-3-(3,5-difluorophenyl)isoxazolidine-2-carbonyl)cyclohexyl)methyl)-1H-indazole-5-carboxamide]: the IC50 is 9 nM in the assay on U937 cells and 24 nM in assay [1].
In the case of `Cc1cnc([C@@H]2CCON2C(=O)[C@H]2CC[C@H](Cc3cc(F)c4nc(C)nn4c3)CC2)cn1` [compound 379, trans-[4-[(8-fluoro-2-methyl-[1,2,4]triazolo[1,5-a]pyridin-6-yl)methyl]cyclohexyl]-[(3S)-3-(5-methylpyrazin-2-yl)-1,2-oxazolidin-2-yl]methanone], the concentration for half-maximal inhibition (IC50) with U937 cells stood at 191 nM; in assay [1], 50 nM.
As for `Cc1cncc([C@@H]2CCON2C(=O)[C@H]2CC[C@H](Cc3cc(C)c4nc(C)nn4c3)CC2)c1` [compound 378, trans-[4-[(2,8-dimethyl-[1,2,4]triazolo[1,5-a]pyridin-6-yl)methyl]cyclohexyl]-[(3S)-3-(5-methylpyridin-3-yl)-1,2-oxazolidin-2-yl]methanone], the concentration for half-maximal inhibition (IC50) in the assay with U937 cells was found to be 95 nM; in assay [1], 59 nM.
For `Cc1nccn1-c1cc(F)cc(C[C@H]2CC[C@H](C(=O)N3OCC[C@H]3c3cncc(F)c3)CC2)c1` [compound 220, trans-[4-[[3-fluoro-5-(2-methylimidazol-1-yl)phenyl]methyl]cyclohexyl]-[(3S)-3-(5-fluoro-3-pyridyl)isoxazolidin-2-yl]methanone] the same measures were 12 nM and 26 nM.
On to `Cc1cc(C[C@H]2CC[C@H](C(=O)N3OCC[C@H]3c3coc(C)n3)CC2)c(C)cn1` [compound 377, trans-[4-[(2,5-dimethylpyridin-4-yl)methyl]cyclohexyl]-[(3S)-3-(2-methyl-1,3-oxazol-4-yl)-1,2-oxazolidin-2-yl]methanone], for which the IC50 was 36 nM with U937 cells and 35 nM in assay [1].
On the same counts, the results for `N#Cc1ccc2c(cnn2C[C@H]2CC[C@H](C(=O)N3OCC[C@H]3c3cnccn3)CC2)c1` [compound 218, trans-1-[[4-[(3S)-3-pyrazin-2-ylisoxazolidine-2-carbonyl]cyclohexyl]methyl]indazole-5-carbonitrile] are 13 nM and 20 nM.
As to `N#Cc1cc(F)cc([C@@H]2CCON2C(=O)[C@H]2CC[C@H](Cc3ccc(CO)c(F)c3)CC2)c1` [compound 266, trans-3-fluoro-5-[(3S)-2-[4-[[3-fluoro-4-(hydroxymethyl)phenyl]methyl]cyclohexanecarbonyl]isoxazolidin-3-yl]benzonitrile], the 50% inhibitory concentration (IC50) came to 1 nM with U937 cells and 13 nM in assay [1].
In the case of `N#Cc1cc(F)cc([C@@H]2CCON2C(=O)[C@H]2CC[C@H](Cn3cc4ncc(C#N)cc4n3)CC2)c1` [compound 24, trans-2-((4-((S)-3-(3-cyano-5-fluorophenyl)isoxazolidine-2-carbonyl)cyclohexyl)methyl)-2H-pyrazolo[4,3-b]pyridine-6-carbonitrile], the results for the IC50 (with U937 cells; in assay [1]) were 471 nM and 109 nM, respectively.
For the compound `Cc1c2ccccc2nn1C[C@H]1CC[C@H](C(=O)N2OCC[C@H]2c2cc(F)cc(F)c2)CC1` [compound 62, trans-((S)-3-(3,5-difluorophenyl)isoxazolidin-2-yl)(4-((3-methyl-2H-indazol-2-yl)methyl)cyclohexyl)methanone], the IC50 in the assay on U937 cells is 22 nM; in assay [1], 20 nM.
On to `O=C1NCc2c(F)cc(C[C@H]3CC[C@H](C(=O)N4OCC[C@H]4c4cnccn4)CC3)cc21` [compound 213, trans-4-fluoro-6-[[4-[(3S)-3-pyrazin-2-ylisoxazolidine-2-carbonyl]cyclohexyl]methyl]isoindolin-1-one], for which the IC50 with U937 cells stood at 16 nM; in assay [1], 19 nM.
On to `Cc1nc2cc(C[C@H]3CC[C@H](C(=O)N4OCC[C@H]4c4cnccn4)CC3)ccn2n1` [compound 374, trans-[4-(2-Methyl-[1,2,4]triazolo[1,5-a]pyridin-7-ylmethyl)-cyclohexyl]-((S)-3-pyrazin-2-yl-isoxazolidin-2-yl)-methanone], for which the 50% inhibitory concentration (IC50) was 55 nM in the assay on U937 cells and 36 nM in assay [1].
On the same counts, the results for `Cc1ncc(F)cc1C[C@H]1CC[C@H](C(=O)N2OCC[C@H]2c2cncc(F)c2)CC1` [compound 178, trans-[4-[(5-fluoro-2-methyl-3-pyridyl)methyl]cyclohexyl]-[(3S)-3-(5-fluoro-3-pyridyl)isoxazolidin-2-yl]methanone] are 6 nM and 38 nM.
As for `N#Cc1cc(F)cc([C@@H]2CCON2C(=O)[C@H]2CC[C@H](Cn3ccc4ncc(OC5COC5)cc43)CC2)c1` [compound 146, trans-3-fluoro-5-[(3S)-2-[4-[[6-(oxetan-3-yloxy)pyrrolo[3,2-b]pyridin-1-yl]methyl]cyclohexanecarbonyl]isoxazolidin-3-yl]benzonitrile], the IC50 was 26 nM in the assay with U937 cells and 28 nM in assay [1].
`Cc1ccc(C[C@H]2CC[C@H](C(=O)N3OCC[C@H]3c3cnc(C)c(F)c3)CC2)nn1` [compound 388, trans-[(3S)-3-(5-fluoro-6-methylpyridin-3-yl)-1,2-oxazolidin-2-yl]-[4-[(6-methylpyridazin-3-yl)methyl]cyclohexyl]methanone]: the half-inhibitory concentration (IC50) with U937 cells amounted to 176 nM; in assay [1] it was 97 nM.
For the compound `Cc1ncc(C[C@H]2CC[C@H](C(=O)N3OCC[C@H]3c3cc(F)cc(C#N)c3)CC2)cc1C#N` [compound 268, trans-5-[[4-[(3S)-3-(3-cyano-5-fluoro-phenyl)isoxazolidine-2-carbonyl]cyclohexyl]methyl]-2-methyl-pyridine-3-carbonitrile], the IC50 is 5 nM with U937 cells and 12 nM in assay [1].
